Laboratory results taken from patent US12655116B2, “Substituted isophthalic acid diamides” (Bayer Aktiengesellschaft, priority 2020, dated 2026).

Columns and labels:
DIGSA [1] = assay: Post-emergence herbicidal action against DIGSA; type: in vivo, Digitaria sanguinalis; conditions: Digitaria sanguinalis, 504 h
How it was run: (§1)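 Herbicidal effect was scored visually in percent after about 3 weeks in the greenhouse. Plants had been raised in sandy loam and treated post-emergence at the one-leaf stage with formulated compound at 600 to 800 l/ha water plus 0.2% wetting agent.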

VIOTR [2] = assay: Pre-emergence herbicidal action against VIOTR; type: in vivo, Viola tricolor; conditions: Viola tricolor, 504 h; for pest or weed control at 20 g/ha: dosage 20 g/ha; for pest or weed control at 80 g/ha: dosage 80 g/ha
How it was run: (§2)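 Herbicidal effect was assessed 3 weeks after treatment by visual comparison with untreated controls, 100% denoting dead plants. Aqueous WP or EC preparations had been applied at 600 to 800 l/ha with 0.2% wetting agent to the soil covering freshly sown seeds.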

AVEFA [3] = assay: Pre-emergence herbicidal action against AVEFA; type: in vivo, Avena fatua; conditions: Avena fatua, 504 h; 80 g/ha, pre-emergence
How it was run: as §2

HORMU [4] = assay: Post-emergence herbicidal action against HORMU; type: in vivo, Hordeum murinum; conditions: Hordeum murinum, 504 h, dosage 20 g/ha
How it was run: as §1

VIOTR [5] = assay: Post-emergence herbicidal action against VIOTR; type: in vivo, Viola tricolor; conditions: Viola tricolor, 504 h
How it was run: as §1

AMARE [6] = assay: Pre-emergence herbicidal action against AMARE; type: in vivo, Amaranthus retroflexus; conditions: Amaranthus retroflexus, 504 h, scored visually after 3 weeks vs untreated controls, 100% = plants have died, 0% = like control plants
How it was run: as §2

MATIN [7] = assay: Pre-emergence herbicidal action against MATIN; type: in vivo, Matricaria inodora; conditions: Tripleurospermum inodorum, 504 h; for pest or weed control at 20 g/ha: dosage 20 g/ha; for pest or weed control at 80 g/ha: dosage 80 g/ha
How it was run: as §2

ALOMY [8] = assay: Pre-emergence herbicidal action against ALOMY; type: in vivo, Alopecurus myosuroides; conditions: Alopecurus myosuroides, 504 h, pre-emergence; for pest or weed control at 80 g/ha: scored visually after 3 weeks vs untreated controls (100% = plants have died, 0% = like control plants); for pest or weed control at 20 g/ha: scored visually after 3 weeks, 100% = plants have died, 0% = like control plants
How it was run: as §2

SETVI [9] = assay: Post-emergence herbicidal action against SETVI; type: in vivo, Setaria viridis; conditions: Setaria viridis, 504 h; for pest or weed control at 5 g/ha: dosage 5 g/ha; for pest or weed control at 20 g/ha: dosage 20 g/ha
How it was run: as §1

LOLRI [10] = assay: Post-emergence herbicidal action against LOLRI; type: in vivo, Lolium rigidum; conditions: Lolium rigidum, 504 h, dosage 20 g/ha
How it was run: as §1

STEME [11] = assay: Pre-emergence herbicidal action against STEME; type: in vivo, Stellaria media; conditions: Stellaria media, 504 h
How it was run: as §2

AVEFA [12] = assay: Post-emergence herbicidal action against AVEFA; type: in vivo, Avena fatua; conditions: Avena fatua, 504 h, visual assessment about 3 weeks after treatment, 100% = plants have died, 0% = like control plants
How it was run: as §1

ABUTH [13] = assay: Post-emergence herbicidal action against ABUTH; type: in vivo, Abutilon theophrasti; conditions: Abutilon theophrasti, 504 h, dosage 20 g/ha, visual assessment about 3 weeks after treatment vs untreated controls
How it was run: as §1

STEME [14] = assay: Post-emergence herbicidal action against STEME; type: in vivo, Stellaria media; conditions: Stellaria media, 504 h
How it was run: as §1

ALOMY [15] = assay: Post-emergence herbicidal action against ALOMY; type: in vivo, Alopecurus myosuroides; conditions: Alopecurus myosuroides, 504 h, visual assessment about 3 weeks after treatment vs untreated controls; for pest or weed control at 20 g/ha: dosage 20 g/ha
How it was run: as §1

ECHCG [16] = assay: Post-emergence herbicidal action against ECHCG; type: in vivo, Echinochloa crus-galli; conditions: Echinochloa crus-galli, 504 h, dosage 20 g/ha
How it was run: as §1

ECHCG [17] = assay: Pre-emergence herbicidal action against ECHCG; type: in vivo, Echinochloa crus-galli; conditions: Echinochloa crus-galli, 504 h, 80 g/ha
How it was run: as §2

ABUTH [18] = assay: Pre-emergence herbicidal action against ABUTH; type: in vivo, Abutilon theophrasti; conditions: Abutilon theophrasti, 504 h; for pest or weed control at 80 g/ha: scored visually after 3 weeks vs untreated controls (100% = plants have died, 0% = like control plants); for pest or weed control at 20 g/ha: dosage 20 g/ha, scored visually after 3 weeks vs untreated controls, 100% = plants have died, 0% = like control plants, read-out: Pre-emergence action against ABUTH (herbicidal activity in percent)
How it was run: as §2

SETVI [19] = assay: Pre-emergence herbicidal action against SETVI; type: in vivo, Setaria viridis; conditions: Setaria viridis, 504 h; for pest or weed control at 20 g/ha: dosage 20 g/ha; for pest or weed control at 80 g/ha: dosage 80 g/ha
How it was run: as §2

POLCO [20] = assay: Pre-emergence herbicidal action against POLCO; type: in vivo, Polygonum convolvulus; conditions: Fallopia convolvulus, 504 h, dosage 80 g/ha
How it was run: as §2

PHBPU = assay: Pre-emergence herbicidal action against PHBPU; type: in vivo, Pharbitis purpurea; conditions: Ipomoea purpurea, 504 h, dosage 80 g/ha
How it was run: as §2

DIGSA [21] = assay: Pre-emergence herbicidal action against DIGSA; type: in vivo, Digitaria sanguinalis; conditions: Digitaria sanguinalis, 504 h; for pest or weed control at 20 g/ha: dosage 20 g/ha; for pest or weed control at 80 g/ha: dosage 80 g/ha
How it was run: as §2

LOLRI [22] = assay: Pre-emergence herbicidal action against LOLRI; type: in vivo, Lolium rigidum; conditions: Lolium rigidum, 504 h
How it was run: as §2

AMARE [23] = assay: Post-emergence herbicidal action against AMARE; type: in vivo, Amaranthus retroflexus; conditions: Amaranthus retroflexus, 504 h, 20 g/ha, visual assessment about 3 weeks after treatment, 100% = plants have died, 0% = like control plants
How it was run: as §1

HORMU [24] = assay: Pre-emergence herbicidal action against HORMU; type: in vivo, Hordeum murinum; conditions: Hordeum murinum, 504 h; 80 g/ha, pre-emergence
How it was run: as §2

POLCO [25] = assay: Post-emergence herbicidal action against POLCO; type: in vivo, Polygonum convolvulus; conditions: Fallopia convolvulus, 504 h, dosage 20 g/ha
How it was run: as §1

MATIN [26] = assay: Post-emergence herbicidal action against MATIN; type: in vivo, Matricaria inodora; conditions: Tripleurospermum inodorum, 504 h, dosage 20 g/ha
How it was run: as §1

VERPE = assay: Post-emergence herbicidal action against VERPE; type: in vivo, Veronica persica; conditions: Veronica persica, 504 h, 20 g/ha
How it was run: as §1

Cn1nnnc1NC(=O)c1ccc(Cl)c(C(=O)NC2CC2)c1Cl [Example 1-173] was tested, and the pest or weed control at 5 g/ha (DIGSA [1]) was 90%, the pest or weed control at 20 g/ha (DIGSA [1]) was 100% and the pest or weed control at 20 g/ha (VIOTR [2]) was 80%. The pest or weed control at 80 g/ha (VIOTR [2]) was 90%, the pest or weed control at 80 g/ha (AVEFA [3]) was 100% and the pest or weed control at 20 g/ha (HORMU [4]) was 90%. For the same molecule, the pest or weed control at 5 g/ha (VIOTR [5]) was 90%, the pest or weed control at 20 g/ha (VIOTR [5]) was 90% and the pest or weed control at 20 g/ha (AMARE [6]) was 100%. For the same molecule, the pest or weed control at 80 g/ha (AMARE [6]) was 100%, the pest or weed control at 20 g/ha (MATIN [7]) was 80% and the pest or weed control at 80 g/ha (MATIN [7]) was 100%. For the same molecule, the pest or weed control at 80 g/ha (ALOMY [8]) was 100%, the pest or weed control at 20 g/ha (ALOMY [8]) was 80% and the pest or weed control at 5 g/ha (SETVI [9]) was 90%. It also gave a pest or weed control at 20 g/ha (SETVI [9]) of 90%, a pest or weed control at 20 g/ha (LOLRI [10]) of 90% and a pest or weed control at 20 g/ha (STEME [11]; dosage 20 g/ha) of 80%. It also gave a pest or weed control at 80 g/ha (STEME [11]; dosage 80 g/ha) of 100%, a pest or weed control at 5 g/ha (AVEFA [12]; 5 g/ha) of 90% and a pest or weed control at 20 g/ha (AVEFA [12]) of 100%. The pest or weed control at 20 g/ha (ABUTH [13]) was 90%, the pest or weed control at 20 g/ha (STEME [14]; 20 g/ha) was 100% and the pest or weed control at 5 g/ha (STEME [14]; dosage 5 g/ha) was 80%. For the same molecule, the pest or weed control at 20 g/ha (ALOMY [15]) was 80%, the pest or weed control at 20 g/ha (ECHCG [16]) was 80% and the pest or weed control at 80 g/ha (ECHCG [17]) was 100%. The pest or weed control at 80 g/ha (ABUTH [18]) was 100%, the pest or weed control at 20 g/ha (ABUTH [18]) was 90% and the pest or weed control at 20 g/ha (SETVI [19]) was 90%. It also gave a pest or weed control at 80 g/ha (SETVI [19]) of 100%, a pest or weed control at 80 g/ha (POLCO [20]) of 80% and a pest or weed control at 80 g/ha (PHBPU) of 90%. It also gave a pest or weed control at 20 g/ha (DIGSA [21]) of 100%, a pest or weed control at 80 g/ha (DIGSA [21]) of 100% and a pest or weed control at 20 g/ha (LOLRI [22]; 20 g/ha) of 80%. For the same molecule, the pest or weed control at 80 g/ha (LOLRI [22]) was 90%, the pest or weed control at 20 g/ha (AMARE [23]) was 100% and the pest or weed control at 80 g/ha (HORMU [24]) was 90%.
Work on Cn1nnnc1NC(=O)c1ccc(Br)c(C(=O)NC2CC2)c1Cl [Example 1-179] yielded a pest or weed control at 5 g/ha (DIGSA [1]) of 90%, a pest or weed control at 20 g/ha (DIGSA [1]) of 90% and a pest or weed control at 20 g/ha (POLCO [25]) of 80%. For the same molecule, the pest or weed control at 20 g/ha (VIOTR [2]) was 100%, the pest or weed control at 80 g/ha (VIOTR [2]) was 100% and the pest or weed control at 80 g/ha (AVEFA [3]) was 100%. It also gave a pest or weed control at 5 g/ha (VIOTR [5]) of 80%, a pest or weed control at 20 g/ha (VIOTR [5]) of 90% and a pest or weed control at 20 g/ha (AMARE [6]) of 100%. For the same molecule, the pest or weed control at 80 g/ha (AMARE [6]) was 100%, the pest or weed control at 20 g/ha (MATIN [7]) was 90% and the pest or weed control at 80 g/ha (MATIN [7]) was 100%. The pest or weed control at 80 g/ha (ALOMY [8]) was 100%, the pest or weed control at 20 g/ha (ALOMY [8]) was 80% and the pest or weed control at 5 g/ha (SETVI [9]) was 90%. The pest or weed control at 20 g/ha (SETVI [9]) was 90%, the pest or weed control at 20 g/ha (MATIN [26]) was 80% and the pest or weed control at 20 g/ha (LOLRI [10]) was 80%. For the same molecule, the pest or weed control at 20 g/ha (AVEFA [12]) was 90%, the pest or weed control at 20 g/ha (ABUTH [13]) was 80% and the pest or weed control at 5 g/ha (ALOMY [15]; dosage 5 g/ha) was 90%. For the same molecule, the pest or weed control at 20 g/ha (ALOMY [15]) was 90%, the pest or weed control at 20 g/ha (ECHCG [16]) was 90% and the pest or weed control at 80 g/ha (ECHCG [17]) was 100%. The pest or weed control at 80 g/ha (ABUTH [18]) was 100%, the pest or weed control at 20 g/ha (ABUTH [18]) was 80% and the pest or weed control at 20 g/ha (SETVI [19]) was 80%. The pest or weed control at 80 g/ha (SETVI [19]) was 100%, the pest or weed control at 20 g/ha (DIGSA [21]) was 100% and the pest or weed control at 80 g/ha (DIGSA [21]) was 100%. The pest or weed control at 80 g/ha (LOLRI [22]) was 90%, the pest or weed control at 20 g/ha (AMARE [23]) was 100% and the pest or weed control at 20 g/ha (VERPE) was 80%.
